Experiments:
[1] = micromolar range; cited from earlier work
[2] = test system: mouse dorsal root ganglion (DRG) neurons; details: purified compounds, 20 μg / mL, K+-stimulated
[3] = test system: other serotonin receptors; experiment: PDSP primary binding assay at 10 μM, other serotonin receptors; parameters: species or system human; details: from Ki at 5-HT2B vs no significant binding at 10 μM

O=C(O)c1csc(-c2ccccc2O)n1 [Aeruginoic acid]
antihypotensive activity [1]: exhibited antihypotensive activity

OC[C@@H]1CSC(c2ccccc2O)=N1 [Compound 1, aerugine]
effect on Ca2+ influx in DRG cells [2]: observably increased Ca^2+ influx

NC(=O)C1CSC(c2ccccc2O)=N1 (centres unmarked) [Compound 3, pulicatin G]
effect on Ca2+ influx in DRG cells [2]: observably increased Ca^2+ influx

C[C@@H]1SC(c2ccccc2O)=N[C@@H]1CO [Compound 6, Pulicatin A]
selectivity for 5-HT2B over related receptors [3]: at least 20 fold | effect on Ca2+ influx in DRG cells [2]: decreased Ca^2+ influx

From PMC2993768 (Journal of natural products, 2010)
